Values after ≈ are worked out from the molar mass of the structure shown. Like-named read-outs stand apart in the source and are kept apart here.
How the values were obtained:
Penicillium italicum = experiment: In vitro agar diffusion assay; format: cell-based; conditions: Five mg on paper disc; Total inhibition is the maximal inhibition, 62.3 cm^2
Alternaria citri = experiment: In vitro agar diffusion assay; format: cell-based; conditions: Five mg on paper disc; Total inhibition is the maximal inhibition, 62.3 cm^2
Geotrichum Candidum = experiment: In vitro agar diffusion assay; format: cell-based; conditions: Five mg on paper disc; Total inhibition is the maximal inhibition, 62.3 cm^2
P. digitatum [1] = experiment: Minimum inhibitory concentration in PDA Petri dishes (mycelial disc); format: cell-based, Penicillium digitatum; conditions: 24° C., hyphal growth after 7 days
Description: The minimum inhibitory concentration (MIC) of over 50 compounds that were found in the oil glands of citrus fruits was evaluated (in vitro) by establishing the lowest concentration of the compound where no growth of the pathogen occurred (in vitro) in Petri dishes. Table 5 gives the MIC of the more promising compounds (as compared to imazalil). The requisite amount of each of the compounds to be tested, dissolved in 0.5 ml acetone, was added to a sterile Petri dish (90 mm) containing 15 ml of molten potato dextrose agar (PDA) (50° C.) to give a final concentration of 1 mg ml^−1. The dish was gently agitated to ensure an even distribution of the test compound and the agar was then left to set. The dishes were inoculated using a mycelial disc (8 mm) cut from an agar plate culture of P. digitatum which had not yet begun sporulation. The mycelial discs were placed in the center of each test dish and then put at 24° C. Fungal inhibition was monitored by measuring the diameter of hyphal growth after 7 days.

P. digitatum [2] = experiment: Mode of action test (fungicidal or fungistatic) by transfer of the mycelial disc to plain PDA; format: cell-based, Penicillium digitatum; conditions: growth monitored 5 days after transfer to plain PDA
Excerpt: A further test was made (in vitro) to investigate whether the mode of action was fungicidal or fungistatic; the mycelial disc of inoculum from the assay plate was transferred to a plate containing just PDA. Plates were then monitored for growth over the next 5 days. If growth resumed, the compound was classified fungistatic, and if growth was not resumed it was classified as fungicidal.

fruit = experiment: Phytotoxicity of citral solutions comprising emulsifiers (1-minute fruit dip); conditions: in vivo
Excerpt: (§1) The blemish score is 0 =no blemishes; 1=light blemishes; 2=moderate blemishes; and 3=severe blemishes.

Penicillium digitatum [3] = experiment: Decay of lemons inoculated with Penicillium 10^4 spores/ml and dipped; format: in vivo, Penicillium digitatum on lemons; conditions: limonene or peel extract not irradiated or exposed to sunlight
Description: Lemon fruit flavedo (exocarp) was taken and extracted overnight in dichloromethane, then exposed to sunlight for about 18 hours until the color of the dichloromethane extract turned brown. The flavedo was blended and filtered through a layer of Whatman paper. The extracted solution was evaporated to remove the dichloromethane and the dense liquor was further separated by chromatography with a silica 60 column using dichloromethane as a carrier. Two fractions of dichloromethane, one green and the other colorless, were obtained after chromatography. The crude active extract was isolated by evaporation of the green dichloromethane fraction. […] Effect of the compounds on pathogen development on the fruit was checked daily during storage.
The antifungal activity of the products prepared in the two different routes was checked in the same method. […] Decay was evaluated at specific intervals during a period of 26 days.
Lemons inoculated with Penicillium (10^4 spores/ml) were dipped in an aqueous solution comprising citral, a detergent (Tween 20), other essential oil components as well as a dichloromethane crude extract of lemon flavedo exposed to sunlight. Decay was evaluated at specific intervals during a period of 20 days.
Pure limonene was exposed to sunlight for three hours. […]

lemons = experiment: Induction of phytoalexins (scoparone, scopoletin) in lemons; format: in vivo, lemon; conditions: injection into the albedo tissue of lemons
Description: Treating uninoculated lemons by injecting 5 μl photo-oxidized limonene into the albedo tissue, just below the flavedo, elicited in these lemons the production of scoparone and scopoletin up to levels adequate to protect the fruit from the pathogen. […] Such injury of yellow fruit gave much lower response showing that the maturity of fruit affects this resistance response and older fruit is less protected (FIG. 2). […] Furthermore much higher levels of both scoparone (over 1000 μg/g fresh weight) and of scopoletin (over 200 μg/g fresh weight) were found after dipping inoculated fruit in the crude dichloromethane extract that prevented decay (FIG. 7). The phytoalexins level found was several fold of the amount required to control completely the pathogens. Thus apparently, the formed limonene hydroperoxides form reactive oxygen species, which elicit the immune system of the plant. Such reactive oxygen species effect the pathogen as well. These reactive oxygen species have a short life and decompose well before the fruit is distributed to the market.

[4] = system: non-inoculated Washington oranges; experiment: Decay percentage of non-inoculated Washington oranges during storage; format: in vivo, Washington navel oranges
Description: Non-inoculated Washington navel oranges were divided into […] groups which were treated as follows: (a) no treatment; (b) dipped in 50% Ethanol; (c) dipped in 0.2% Citral in 0.02% L-77 Emulsifier (aqueous emulsion); (d) dipped in 0.2% Citral in 50% Ethanol; and (e) dipped in a 0.2% aqueous Imazalil solution.
Oranges were then stored for four months at 15° C. in 50-75% relative humidity and the percentage of rotten fruit in each group was measured at different time periods after storage.

Penicillium = experiment: Decay of lemons inoculated as in Example 2 and treated with citral emulsions; format: in vivo, Penicillium digitatum on lemons
Description: Unblemished grapefruit were harvested from the orchard and on the same day sorted again in the laboratory to eliminate injured fruit. The grapefruit were washed with tap water and air-dried. Each fruit was then inoculated by piercing its flavedo tissue 1.5 mm deep with a tool incorporating three needles at three different sites. Prior to each piercing, the tool was immersed in a spore suspension of Penicillium digitatum (10^6 spores/ml). The inoculated grapefruit were kept at 17° C. and 85% relative humidity for 24 hours after which the grapefruit were divided into six groups and grapefruit from each group were treated by dipping for two minutes in: (a) water; (b) 25% Ethanol (EtOH); (c) 0.2% Geraniol in 25% EtOH; (d) 0.1% Citral in 25% EtOH, (e) 0.2% Citral in 25% EtOH and (f) 0.5% Citral in 25% EtOH.
Lemons were inoculated as shown in Example 2 and treated with and without 25% of ethanol to check whether the 5000 ppm of the emulsifier Tween 20 could stabilize the antifungal activity of citral. […] Probably the emulsifier enables the formation of a microcolloidal stable emulsion, which prevents the phytotxicity by allowing uniform dispersion of citral, which is phytotoxic by itself in these concentrations. Thus, Tween 20 combined with the antioxidant BHA could substitute for the ethanol in the formulation.
Lemons inoculated with Penicillium as shown in Example 2 were dipped for 2 minutes in an aqueous solution comprising citral, emulsifier (Triton X100) and BHA at various concentrations. The concentration of Citral is 1.0%. The control solution was comprised of 0.5% Triton X100.
Lemons inoculated with Penicillium as shown in Example 2 were treated with an aqueous solution comprising 0.5% Citral, 0.3% BHA, Tween 20 and imazalil and stored at 20° C. for a period of 21 days.

lemon fruit = experiment: Peel blemish index of lemon fruit after 1-minute dip in citral with antioxidant BHA; format: in vivo; conditions: BHA by itself
Excerpt: The antioxidant reduces the oxidation rate of the essential oils leading to their decomposition. It further reduces the inherent phytotoxicity of the essential oil. The antioxidant may be chosen from the group comprising of compounds such as but not limited to: butylated hydroxyanisole (BHA), ascorbic acid, isoascorbic acid, α-tocopherol, butylated hydroxytoluene (BHT), β-carotene or their mixtures. Preferred concentrations of the antioxidant in the formulation of the invention are in the range of from about 0.05% to about 0.8% (w/v).
The peel blemish index is determined by
as §1

[5] = system: microbial population in meat cuts of beef; experiment: Total count of microbial population in beef meat cuts after dip; conditions: 30 seconds dip in 0.2% Citral dissolved in 20% ethanol; 2 weeks at 1° C.
Description: The meat cuts were then stored in 1° C. and 85% relative humidity and a total count of the microbial population in each meat cut was carried out 2 weeks after treatment.

Erwinia carotovora = experiment: Control of bacterial growth (other experiments, data not shown); format: cell-based
Cladosporium herbarum = experiment: Inhibition of Cladosporium herbarum growing on inoculated corn cob; format: in vivo; conditions: dissolved in 25% ethanol
Penicillium digitatum [6] = experiment: Decay of Penicillium-inoculated grapefruit after 2-minute dip; format: in vivo, Penicillium digitatum on grapefruit
Excerpt: Unblemished grapefruit were harvested from the orchard and on the same day sorted again in the laboratory to eliminate injured fruit. The grapefruit were washed with tap water and air-dried. Each fruit was then inoculated by piercing its flavedo tissue 1.5 mm deep with a tool incorporating three needles at three different sites. Prior to each piercing, the tool was immersed in a spore suspension of Penicillium digitatum (10^6 spores/ml).

P. digitatum [7] = experiment: Control of fungal growth (other experiments, data not shown); format: cell-based, Penicillium digitatum
[8] = system: wild type Candida albicans; experiment: Growth of Candida albicans cells in culture broth (OD 600 nm); format: cell-based
Description: Cells of wild type Candida albicans (1×10^3) were grown on culture broth at 37° C. with different concentration of extracts 50-100 μl. OD was determined at 600 nm. The following treatments in 6 different tubes were given: […] TUBE 2. 2000 ppm Citral+25% Ethanol+2000 ppm Tween-20+300 ppm BHA. […] TUBE 6. 25% ethanol+2000 ppm Tween-20+500 ppm β-CD+300 ppm BHA.

[9] = Penicillium digitatum, 168 h, read-out: MIC

| Molecule | GROWTH INHIBITION AREA OF THE PATHOGEN (Penicillium italicum) | GROWTH INHIBITION AREA OF THE PATHOGEN (Alternaria citri) | GROWTH INHIBITION AREA OF THE PATHOGEN (Geotrichum Candidum) | MIC (P. digitatum [1]; [9]) [µg/mL] | Mode of action (P. digitatum [2]) | other results |
| --- | --- | --- | --- | --- | --- | --- |
| CCCCCCCC=O [Octanal] | 2.6 cm^2 | 5.3 cm^2 | 3.6 cm^2 | – | – | – |
| CC(C)=CCCC(C)CC=O (stereo not shown) [Citronellal] | – | – | – | 600 (≈ 3890 µM) | Fungistatic | – |
| polyoxyethylene sorbitan monooleate [Tween 80] | – | – | – | – | – | Phytotoxicity (peel blemish index as in Table 1) (fruit): 0 |
| C=C(C)C1CC=C(C)CC1 (stereo not shown) [limonene, 1-methyl-4-(1-methylethenyl)cyclohexene] | – | – | – | – | – | inhibition of decay (Penicillium digitatum [3]): not adequately active; elicitation of phytoalexin (scoparone, scopoletin) production (lemons): eliciting the endogenous resistance mechanisms |
| C=CCOC(Cn1ccnc1)c1ccc(Cl)cc1Cl (stereo not shown) [Imazalil, reference compound] | Total inhibition | 42.8 cm^2 | 8.3 cm^2 | < 25 | Fungicidal | % of rotten fruit ([4]; 0.5 months of storage at 15° C.): 0%; % of rotten fruit ([4]; 1 month of storage at 15° C.): 2%; % of rotten fruit ([4]; 2 months of storage at 15° C.): 4%; % of rotten fruit ([4]; 3 months of storage at 15° C.): 5%; % of rotten fruit ([4]; 4 months of storage at 15° C.): 8%; decay control (Penicillium; imazalil 1 and 10 ppm, stored at 20° C. for 21 days): insufficient to control completely decay |
| C=C(C)[C@@H]1CC=C(CO)CC1 [Perillalcohol] | – | – | – | – | Fungicidal | MIC (P. digitatum [1]): 0.4 mg ml^−1 agar |
| O=CC=Cc1ccccc1 [Cinnamaldehyde] | Total inhibition | Total inhibition | 24.2 cm^2 | 400 (≈ 3030 µM) | Fungicidal | – |
| COc1ccc(O)c(C(C)(C)C)c1 [BHA, butylated hydroxyanisole] | – | – | – | – | – | Peel blemish (lemon fruit): did not cause any blemish; activity of citral in preventing the development of the pathogen (Penicillium; 0.1% BHA with 1.0% citral and Triton X100, 2 minutes dip): enhancing the activity of citral |
| C=C(C)C1CC=C(C=O)CC1 (stereo not shown) [Perillaldehyde] | Total inhibition | Total inhibition | Total inhibition | 400 (≈ 2660 µM) | Fungicidal | – |
| C=C(C)C1CC=C(C)C(O)C1 (mixture of isomers) [Carveol] | – | – | – | 1000 | Fungistatic | – |
| CCCCCCCCO [Octanol] | Total inhibition | Total inhibition | Total inhibition | 100 (≈ 768 µM) | Fungicidal | – |
| CCCCCCCCCO [Nonanol] | – | – | – | 200 (≈ 1390 µM) | Fungistatic | – |
| CCCCCCCCCCO [Decanol] | Total inhibition | Total inhibition | 0.95 cm^2 | 50 (≈ 316 µM) | Fungistatic | – |
| CC(C)=CCCC(C)=CC=O [Citral, 3,7-dimethyl-2,6-octadienal] | Total inhibition | Total inhibition | 10.6 cm^2 | 400 (≈ 2630 µM) | Fungicidal | total counts of microbial population, relative to the non-treated meat cuts [5]: less than 10%; controlling growth of the bacteria (Erwinia carotovora): effective in controlling growth; inhibition of the pathogen (Cladosporium herbarum): marked inhibition; elicitation of phytoalexin (scoparone, scopoletin) production (lemons): did not elicit the same protective response; fruit showing decay (Penicillium digitatum [6]; 0.2% Citral dissolved in 25% EtOH, 28 days after inoculation): 20%; decay of fruit (Penicillium digitatum [6]; 0.2% Citral dissolved in 25% EtOH, until 18 days after inoculation): completely inhibited decay; decay of fruit (Penicillium digitatum [6]; 0.5% Citral in 25% EtOH, ascribed to phytotoxicity): enhanced decay; controlling growth of the fungi (P. digitatum [7]): effective in controlling growth; cell growth ([8]; 2000 ppm Citral in 25% ethanol and 2000 ppm Tween 20): completely inhibited cell growth; cell growth ([8]; 2000 ppm Citral, 25% ethanol, 2000 ppm Tween 20 together with β-CD 500 ppm, 300 ppm BHA): completely inhibited cell growth; decay control (Penicillium; 0.5% citral added to 1 ppm imazalil, 0.3% BHA, Tween 20, 20° C., 21 days): did not control decay adequately; decay control (Penicillium; 0.5% citral added to 10 ppm imazalil, 0.3% BHA, Tween 20, 20° C., 21 days): prevented decay completely |
